# Reference: US20230113037A1 (Bayer Aktiengesellschaft, priority 2019, published 2023)
# Read-outs that look alike come from different tables or passages of the source.
# Columns and labels:
# AHR [1] = target: T1, AHR (Homo sapiens, UniProt P35869); experiment: In vitro assay 1: antagonism in human cell line (AHR transactivation, firefly luciferase reporter, kynurenic acid prestimulated); format: cell-based; details: AHR Antagonism Human IC50 [M], firefly luciferase reporter
# T1 construct: U87 MG glioblastoma cells (ATCC #HTB-14) endogenously expressing AHR; endogenous in cells; host or cells: U87 MG glioblastoma cells (ATCC #HTB-14)
# T1 sequence (P35869 11-848): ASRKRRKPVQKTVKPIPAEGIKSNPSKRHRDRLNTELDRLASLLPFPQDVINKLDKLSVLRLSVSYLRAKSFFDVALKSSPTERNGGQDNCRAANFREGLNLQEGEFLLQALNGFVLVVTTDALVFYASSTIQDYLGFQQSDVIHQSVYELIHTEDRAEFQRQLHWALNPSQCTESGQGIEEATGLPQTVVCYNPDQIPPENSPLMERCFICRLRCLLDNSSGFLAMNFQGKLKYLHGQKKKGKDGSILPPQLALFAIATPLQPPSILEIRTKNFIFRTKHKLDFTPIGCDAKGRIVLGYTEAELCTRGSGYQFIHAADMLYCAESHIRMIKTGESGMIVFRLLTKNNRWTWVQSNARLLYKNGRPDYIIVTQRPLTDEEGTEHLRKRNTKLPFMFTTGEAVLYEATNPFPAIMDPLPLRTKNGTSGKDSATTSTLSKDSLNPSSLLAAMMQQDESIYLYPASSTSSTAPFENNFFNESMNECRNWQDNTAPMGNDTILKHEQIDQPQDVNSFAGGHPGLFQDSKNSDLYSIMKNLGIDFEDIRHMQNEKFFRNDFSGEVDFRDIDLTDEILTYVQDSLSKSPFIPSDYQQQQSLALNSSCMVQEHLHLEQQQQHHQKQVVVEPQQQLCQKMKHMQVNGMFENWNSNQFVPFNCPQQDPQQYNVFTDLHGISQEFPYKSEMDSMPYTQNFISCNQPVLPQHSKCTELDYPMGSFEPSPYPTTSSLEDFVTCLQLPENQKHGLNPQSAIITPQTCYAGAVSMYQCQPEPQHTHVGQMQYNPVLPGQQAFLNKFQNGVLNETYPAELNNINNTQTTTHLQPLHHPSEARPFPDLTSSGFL
# In short: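 U87 MG glioblastoma cells with endogenous AHR, stably carrying a DRE-driven firefly luciferase reporter and constitutive Renilla reporter, prestimulated with kynurenic acid before compound addition. Firefly and Renilla read by dual luciferase; Renilla flags toxicity; normalized to controls (150 μM kynurenic acid + 5 μM staurosporine as full inhibition); repeat values averaged or median.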
# AHR [2] = target: T2, AHR (Mus musculus, UniProt P30561); experiment: In vitro assay 3: antagonism in mouse cell line (AHR transactivation, firefly luciferase reporter, kynurenic acid prestimulated); format: cell-based
# T2 sequence (P30561 1-848 P471L/N533S/M589L): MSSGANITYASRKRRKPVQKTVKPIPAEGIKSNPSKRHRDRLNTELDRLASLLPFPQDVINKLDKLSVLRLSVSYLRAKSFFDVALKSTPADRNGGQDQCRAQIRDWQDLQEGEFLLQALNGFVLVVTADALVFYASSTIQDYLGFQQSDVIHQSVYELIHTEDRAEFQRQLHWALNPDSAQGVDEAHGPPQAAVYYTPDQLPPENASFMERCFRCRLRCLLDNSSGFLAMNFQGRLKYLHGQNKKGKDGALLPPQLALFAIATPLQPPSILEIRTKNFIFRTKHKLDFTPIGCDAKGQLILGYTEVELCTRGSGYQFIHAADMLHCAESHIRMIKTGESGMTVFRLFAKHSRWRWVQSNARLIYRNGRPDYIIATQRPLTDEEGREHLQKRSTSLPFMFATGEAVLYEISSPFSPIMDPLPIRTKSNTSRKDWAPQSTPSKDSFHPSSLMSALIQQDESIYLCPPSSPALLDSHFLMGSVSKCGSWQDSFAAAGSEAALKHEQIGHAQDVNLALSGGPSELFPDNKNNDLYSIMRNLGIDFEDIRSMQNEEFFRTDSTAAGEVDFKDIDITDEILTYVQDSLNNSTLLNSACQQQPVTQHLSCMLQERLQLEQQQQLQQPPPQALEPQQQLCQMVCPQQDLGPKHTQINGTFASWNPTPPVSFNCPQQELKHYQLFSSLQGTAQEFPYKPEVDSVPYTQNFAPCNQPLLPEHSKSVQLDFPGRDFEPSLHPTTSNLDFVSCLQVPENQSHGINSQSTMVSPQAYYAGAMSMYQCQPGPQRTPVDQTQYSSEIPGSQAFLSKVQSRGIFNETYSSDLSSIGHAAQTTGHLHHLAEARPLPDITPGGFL
# In short: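 Mouse cells stably carrying a DRE-driven, AHR-inducible firefly luciferase reporter were prestimulated with the endogenous agonist kynurenic acid before compound addition. Luciferase activity was measured by luminescence and normalized to positive and negative controls, with cells lacking kynurenic acid serving as full-inhibition control. Repeat tests are reported as mean or median.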
# [3] = Hepa 1c1c7 cells, 200 μM kynurenic acid, 20 hours, firefly luciferase reporter, read-out: AHR Antagonism Mouse IC50
# [4] = read-out: AHR Antagonism Mouse IC50, Hepa 1c1c7 cells, 200 μM kynurenic acid, 20 hours, firefly luciferase reporter
SMILES,IC50 (AHR [1]) [M],IC50 (AHR [2]; [3]) [nM],IC50 (AHR [2]; [4]) [nM]
"CCOC(=O)[C@@H](C)Nc1nc2c(Br)cccc2c2nc(-c3cnn(C)c3)nn12 [Example 866, ethyl N-[7-bromo-2-(1-methyl-1H-pyrazol-4-yl)[1,2,4]triazolo[1,5-c]quinazolin-5-yl]-D-alaninate]",5.75e-08,144,
"C[C@@H](Nc1nc2c(C(F)(F)F)cccc2c2nc(-c3cnn(C)c3)nn12)C(=O)N1CCOCC1 [Example 874, (2R)-2-{[2-(1-methyl-1H-pyrazol-4-yl)-7-(trifluoromethyl)[1,2,4]triazolo[1,5-c]quinazolin-5-yl]amino}-1-(morpholin-4-yl)propan-1-one]",2.31e-08,61.7,
"C[C@@H](Nc1nc2c(C(F)(F)F)cccc2c2nc(-c3cnn(C)c3)nn12)C(=O)N1CCN(C)CC1 [Example 875, (2R)-1-(4-methylpiperazin-1-yl)-2-{[2-(1-methyl-1H-pyrazol-4-yl)-7-(trifluoromethyl)[1,2,4]triazolo[1,5-c]quinazolin-5-yl]amino}propan-1-one]",1.69e-08,31.5,
"C[C@@H](Nc1nc2c(C(F)(F)F)cccc2c2nc(-c3cnn(C)c3)nn12)C(=O)N(C)CCN(C)C [Example 877, N-[2-(dimethylamino)ethyl]-N-methyl-N^2-[2-(1-methyl-1H-pyrazol-4-yl)-7-(trifluoromethyl)[1,2,4]triazolo[1,5-c]quinazolin-5-yl]-D-alaninamide]",8.72e-08,160,
"COCCN(C)C(=O)[C@@H](C)Nc1nc2c(C(F)(F)F)cccc2c2nc(-c3cnn(C)c3)nn12 [Example 878, N-(2-methoxyethyl)-N-methyl-N^2-[2-(1-methyl-1H-pyrazol-4-yl)-7-(trifluoromethyl)[1,2,4]triazolo[1,5-c]quinazolin-5-yl]-D-alaninamide]",2.78e-08,43.3,
"C[C@@H](Nc1nc2c(C(F)(F)F)cccc2c2nc(-c3cnn(C)c3)nn12)C(=O)N1CC2(COC2)C1 [Example 880, (2R)-2-{[2-(1-methyl-1H-pyrazol-4-yl)-7-(trifluoromethyl)[1,2,4]triazolo[1,5-c]quinazolin-5-yl]amino}-1-(2-oxa-6-azaspiro[3.3]heptan-6-yl)propan-1-one]",5.77e-08,,193
"C[C@@H](Nc1nc2c(Br)cccc2c2nc(-c3cnn(C)c3)nn12)C(=O)N1CCN(C(=O)OC(C)(C)C)CC1 [Example 886, tert-butyl 4-{N-[7-bromo-2-(1-methyl-1H-pyrazol-4-yl)[1,2,4]triazolo[1,5-c]quinazolin-5-yl]-D-alanyl}piperazine-1-carboxylate]",6.83e-08,99.3,
"COc1ccc(-c2nc3c4cccc(Br)c4nc(N[C@H](C)C(=O)NCCN(C)C(=O)OC(C)(C)C)n3n2)cc1 [Example 887, tert-butyl [2-({N-[7-bromo-2-(4-methoxyphenyl)[1,2,4]triazolo[1,5-c]quinazolin-5-yl]-D-alanyl}amino)ethyl]methylcarbamate]",1.37e-09,,10.1
"C[C@@H](Nc1nc2c(Br)cccc2c2nc(-c3cnn(C)c3)nn12)C(=O)NCCN(C)C(=O)OC(C)(C)C [Example 888, tert-butyl [2-({N-[7-bromo-2-(1-methyl-1H-pyrazol-4-yl)[1,2,4]triazolo[1,5-c]quinazolin-5-yl]-D-alanyl}amino)ethyl]methylcarbamate]",1.73e-08,24.8,

# Further lines, with some results ahead:
IC50 (AHR [1]) [M],IC50 (AHR [2]; [3]) [nM],SMILES,IC50 (AHR [2]; [4]) [nM]
2.6e-09,3,"COC(=O)[C@H](Nc1nc2c(Br)cccc2c2nc(-c3ccc(OC)cc3)nn12)C(C)C [Example 867, methyl N-[7-bromo-2-(4-methoxyphenyl)[1,2,4]triazolo[1,5-c]quinazolin-5-yl]-D-valinate]",
6.28e-09,6.29,"COC(=O)[C@H](Nc1nc2c(Br)cccc2c2nc(-c3cnn(C)c3)nn12)C(C)C [Example 868, methyl N-[7-bromo-2-(1-methyl-1H-pyrazol-4-yl)[1,2,4]triazolo[1,5-c]quinazolin-5-yl]-D-valinate]",
1.09e-08,10.7,COc1ccc(-c2nc3c4cccc(Br)c4nc(N[C@H](C)C(=O)O)n3n2)cc1 [Example 870],
6.57e-09,15.8,"COc1ccc(-c2nc3c4cccc(Br)c4nc(N[C@@H](C(=O)O)C(C)C)n3n2)cc1 [Example 872, N-[7-bromo-2-(4-methoxyphenyl)[1,2,4]triazolo[1,5-c]quinazolin-5-yl]-D-valine]",
6.04e-09,12.2,"COc1ccc(-c2nc3c4ccccc4nc(N[C@H](C)C(=O)NCCN4CCN(C)CC4)n3n2)cc1 [Example 881, N^2-[2-(4-methoxyphenyl)[1,2,4]triazolo[1,5-c]quinazolin-5-yl]-N-[2-(4-methylpiperazin-1-yl)ethyl]-D-alaninamide]",
5.91e-09,5.13,"COc1ccc(-c2nc3c4ccccc4nc(N[C@H](C)C(=O)N4CCN(C(=O)OC(C)(C)C)CC4)n3n2)cc1 [Example 882, tert-butyl 4-{N-[2-(4-methoxyphenyl)[1,2,4]triazolo[1,5-c]quinazolin-5-yl]-D-alanyl}piperazine-1-carboxylate]",
5.84e-09,7.79,"COc1ccc(-c2nc3c4cccc(Br)c4nc(N[C@H](C)C(=O)N4CCN(C(=O)OC(C)(C)C)CC4)n3n2)cc1 [Example 883, tert-butyl 4-{N-[7-bromo-2-(4-methoxyphenyl)[1,2,4]triazolo[1,5-c]quinazolin-5-yl]-D-alanyl}piperazine-1-carboxylate]",
6.66e-09,8.31,"COc1ccc(-c2nc3c4ccccc4nc(N[C@H](C)C(=O)NCCN4CCN(C(=O)OC(C)(C)C)CC4)n3n2)cc1 [Example 884, tert-butyl 4-[2-({N-[2-(4-methoxyphenyl)[1,2,4]triazolo[1,5-c]quinazolin-5-yl]-D-alanyl}amino)ethyl]piperazine-1-carboxylate]",
1.24e-09,2.94,"COCCNC(=O)[C@@H](C)Nc1nc2c(Br)cccc2c2nc(-c3ccc(OC)cc3)nn12 [Example 885, N^2-[7-bromo-2-(4-methoxyphenyl)[1,2,4]triazolo[1,5-c]quinazolin-5-yl]-N-(2-methoxyethyl)-D-alaninamide]",
3.9e-09,4.45,"COc1ccc(-c2nc3c4ccccc4nc(N[C@H](C)C(=O)NCCN(C)C(=O)OC(C)(C)C)n3n2)cc1 [Example 889, tert-butyl [2-({N-[2-(4-methoxyphenyl)[1,2,4]triazolo[1,5-c]quinazolin-5-yl]-D-alanyl}amino)ethyl]methylcarbamate]",
4.05e-09,9.3,"COc1ccc(-c2nc3c4cccc(Br)c4nc(N[C@H](C)C(=O)NCCN4CCN(C(=O)OC(C)(C)C)CC4)n3n2)cc1 [Example 890, tert-butyl 4-[2-({N-[7-bromo-2-(4-methoxyphenyl)[1,2,4]triazolo[1,5-c]quinazolin-5-yl]-D-alanyl}amino)ethyl]piperazine-1-carboxylate]",
